The text below walks through data of patent US12708627B2, “Combination therapy for VAV3 cancer” (Children's Hospital Medical Center, priority 2021, dated 2026).

“Also recorded” adds a separate entry of the source.

Assay [1] deals with p190-BCR-ABL1 leukemic progenitor cells (EGFP+/B220dim). The assay can be described thus: Cell cycle analysis by BrdU incorporation. The following applies: 20 h; for percentage of cells in the G2+M phases: SEM, N=3. The assay is classed as cell-based. How it is done:
Results are representative of two independent experiments.
It increased the percentage of cells in the G2+M phases from 7±1% (SEM, N=3) in the presence of vehicle control to 22±6.6, 32±3, and 36±7% (SEM, N=3) at 1, 3, and 10 μM, respectively. At 1 μM, it reduced the S-phase 8-fold (p=0.005) and increased apoptosis by at least 5.3-times.
Cell Cycle Analysis: Cell cycle was analyzed via in vitro BrdU incorporation (BD Pharmingen, Cat #552598). Briefly, leukemic progenitors were incubated with 1 mM BrdU solution for 45 minutes, cells were further fixed and permeabilized. DNAse treatment was done according to the instructions and stained with anti BrdU and apoptosis was analyzed by 7-AAD staining through flow cytometry analysis.

Assay [2] deals with pVAV3 (pTyr173), pVAV1 (pTyr174) in PDX B-ALL cells. The assay can be described thus: pVAV3, pPAK1, pVAV1 immunoblot of PDX cells ex vivo. The assay is classed as cell-based, human. The note with it: 1 μM, 30 min. The source says:
In general, pPAK1 followed the same trend.

For the next assay, the target named is p50GAP (Homo sapiens, UniProt Q07960). The assay is described as follows: p50GAP-stimulated GTP-hydrolysis of RAC, stopped-flow. Format: biochemical. The following applies: IODVA1 50 μM; absence kobs=6.6. As for the experimental part: GAPDH was used as loading control.
RAC activity and signaling^16-26 is regulated by RAC-specific GAPs, GDIs, and GEFs. […] RAC was loaded with the fluorescently-labeled tamraGTP and the stimulated increase in GTP-hydrolysis by the C-terminal GAP homology of p50GAP was monitored by stopped-flow fast kinetics for 3 s.
Stopped-flow Spectrometry: GTPase assay and nucleotide exchange reaction were performed with a Hi-Tech Scientific (SF-61) stopped-flow instrument as described ^33 The excitation wavelengths were 543 nm and 362 nm for tamraGTP and mantGppNHp, respectively. For GTPase assay, equal volumes (600 μl) of 0.2 μM RAC1-tamraGTP and 10 μM of p50GAP were used. GTPase assay as well the protein-protein interaction were performed in presence of 5% DMSO.

The test system of assay [3] is VAV3−/− p190-BCR-ABL1 leukemic cells expressing ΔCH VAV3. The assay can be described thus: VAV3 rescue: cell cycle and colony formation, ΔCH mutant. The assay is classed as cell-based, murine. The note with it: up to 10 μM. The source says:
(§1) (FIG. 5A) Schematic of domain architecture of full-length, ΔCH and GEF-mutant VAV3; calponin-homology (CH), acidic region (Ac), Dbl-homology (DH), pleckstrin-homology (PH), zinc finger (ZF), SRC-homology 2 and 3 (SH2/SH3). Black circle and star indicate Y173 and N369, respectively.
(§2) Re-introducing full-length or ΔCH VAV3 results in similar number of colonies as with wild-type BM leukemic cells (black bars, mean of 200.3 and 183.3 vs 188.3, respectively), a 3-fold increase from VAV3^−/− leukemic cells expressing the empty vector (mean=64.3 colonies).
(§3) For VAV3 rescue experiments, low density bone marrow cells from wild-type (VAV3^+/+) or VAV3^−/− mice were transduced with bicistronic retroviral vector encoding p190 BCR-ABL1-IRES-YFP and sorted for YFP^+ 48 h post-transduction. Cells were then transduced with lentiviral particles encoding either empty vector, full-length WT or mutant VAV3 (pCDH1-MCS1-EF1-copGFP). […] Cell cycle was analyzed at 18 h post BrdU incorporation.

For assay [4], the system named is VAV3−/− p190-BCR-ABL1 leukemic cells expressing N369A VAV3. The assay can be described thus: VAV3 rescue: cell cycle and colony formation, N369A GEF-deficient mutant. The following applies: up to 10 μM. The assay is classed as cell-based, murine.
Excerpt: as §1, §2, §3

In the next assay the target is T1, VAV3 (Homo sapiens, UniProt Q9UKW4).
T1 sequence (Q9UKW4 1-847): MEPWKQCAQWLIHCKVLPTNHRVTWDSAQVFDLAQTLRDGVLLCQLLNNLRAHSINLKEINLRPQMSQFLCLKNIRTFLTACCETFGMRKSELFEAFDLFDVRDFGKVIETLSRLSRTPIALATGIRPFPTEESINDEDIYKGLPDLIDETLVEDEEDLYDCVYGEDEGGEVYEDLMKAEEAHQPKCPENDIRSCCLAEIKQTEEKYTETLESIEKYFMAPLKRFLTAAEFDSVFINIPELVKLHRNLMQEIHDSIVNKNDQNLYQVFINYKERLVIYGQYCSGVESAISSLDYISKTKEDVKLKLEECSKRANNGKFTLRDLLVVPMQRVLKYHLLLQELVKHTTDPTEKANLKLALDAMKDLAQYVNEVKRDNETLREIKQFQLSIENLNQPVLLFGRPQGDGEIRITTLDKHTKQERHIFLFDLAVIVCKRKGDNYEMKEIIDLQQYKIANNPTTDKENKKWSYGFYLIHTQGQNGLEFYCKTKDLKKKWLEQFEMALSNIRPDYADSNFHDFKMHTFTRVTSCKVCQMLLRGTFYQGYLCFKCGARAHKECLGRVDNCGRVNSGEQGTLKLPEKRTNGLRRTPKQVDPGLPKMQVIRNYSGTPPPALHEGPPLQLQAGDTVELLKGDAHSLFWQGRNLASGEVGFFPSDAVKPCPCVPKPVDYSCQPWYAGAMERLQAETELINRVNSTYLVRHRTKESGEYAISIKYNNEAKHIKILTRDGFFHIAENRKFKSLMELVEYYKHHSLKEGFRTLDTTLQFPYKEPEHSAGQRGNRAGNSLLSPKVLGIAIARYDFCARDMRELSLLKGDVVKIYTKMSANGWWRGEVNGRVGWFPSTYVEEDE
The assay is described as follows: pVAV3 levels in bone marrow aspirates of PDX mice. Format: in vivo, NSG mice. The following applies: PDX 2018-136 mice. The source says: N=5 mice per treatment group.

For assay [5], the system named is wild-type p190-BCR-ABL1 leukemia. The assay can be described thus: Wild-type (VAV3+/+) p190-BCR-ABL1 leukemic mice, osmotic pump. The following applies: for leukemic progenitors in peripheral blood: vehicle 23.8%.

Sequence of p50GAP (Q07960 244-431 limits assumed): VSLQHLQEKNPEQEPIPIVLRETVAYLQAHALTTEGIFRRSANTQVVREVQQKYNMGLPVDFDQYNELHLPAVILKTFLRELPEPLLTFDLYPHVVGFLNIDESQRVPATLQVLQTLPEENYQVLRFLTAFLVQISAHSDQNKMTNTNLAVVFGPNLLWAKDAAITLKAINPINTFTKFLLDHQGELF

Take `OC1(c2ccccc2)NC(=Nc2nc3ccccc3[nH]2)N=C1c1ccccn1` (stereo not shown) [IODVA1]: the increase of apoptosis entry in assay [1] (1 μM) is on record as “at least 5.3 times”. The “percentage of cells in the G2+M phases” value in assay [1] (1 μM, vehicle 7±1%) was found to be 22±6.6%; in assay [1] (3 μM) it was 32±3%; in assay [1] (10 μM), 36±7%. In assay [1] (1 μM, p=0.005), the “reduction of the S-phase” value turned out to be 8 fold. The “G0+G1 phase” value in assay [1] (1-10 μM) is given as “did not affect”. Also, the pVAV1 levels result in assay [2] (any of the patient samples tested) is “unchanged”. In addition, the “decrease of levels of pVAV3” value in assay [2] (IODVA1-sensitive PDX cells) is 90%. Moreover, the “kobs of p50GAP-stimulated GTP-hydrolysis in the presence of compound” value on p50GAP came out at 5.7. Besides, the entries for the “sensitivity to IODVA1, cell cycle and colony formation” value in assay [3] and in assay [4] were “did not re-sensitize; also recorded: less sensitive” and “did not re-sensitize; also recorded: insensitive”, respectively. For the same compound, the “VAV3 activation (pVAV3) in BM” value on VAV3 is given as “significantly decreased”. The same compound returned a survival in assay [5] (IODVA1 1 mM, one pump, treatment day 21 to day 35) of 60 days. For the same compound, the “leukemic progenitors in peripheral blood” value worked out at 5% in assay [5] (after one week of treatment) and 2% in assay [5] (after two weeks of treatment). In addition, the “survival after treatment has ended” value in assay [5] (treatment ended by day 35) worked out at 25 days.
